According to PMC8818024 (Structure (London, England : 1993), 2021):
Entries after “also recorded” stand apart in the source; their conditions may differ.

Tests used:
Arr1 = Arr1 (Bos taurus, UniProt P08168); assay: Tyrosine fluorescence quenching assay of Arr1; format: binding, bovine; settings: intrinsic quenching assay, no Mg2+; Figure 6E-F, Table S1
bovine arrestin-1 = assay: cwEPR of spin-labeled arrestin C-tail mutants; settings: spin-labeled Arr1 mutants, room temperature, compared with apo-Arr1; Figure 3D

Arr1, sequence (P08168 whole entry): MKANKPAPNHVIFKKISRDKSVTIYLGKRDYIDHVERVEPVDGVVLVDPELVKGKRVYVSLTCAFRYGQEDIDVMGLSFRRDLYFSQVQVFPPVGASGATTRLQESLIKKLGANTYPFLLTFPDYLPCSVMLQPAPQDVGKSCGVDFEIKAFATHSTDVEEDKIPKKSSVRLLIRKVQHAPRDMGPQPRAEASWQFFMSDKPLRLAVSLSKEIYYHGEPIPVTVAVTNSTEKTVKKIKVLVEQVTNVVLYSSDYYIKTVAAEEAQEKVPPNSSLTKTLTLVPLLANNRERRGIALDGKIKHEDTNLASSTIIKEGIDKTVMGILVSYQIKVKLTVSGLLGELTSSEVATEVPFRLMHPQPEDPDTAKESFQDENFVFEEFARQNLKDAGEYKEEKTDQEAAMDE

O=P(O)(O)O[C@@H]1[C@H](O)[C@H](O)[C@@H](OP(=O)(O)O)[C@H](OP(=O)(O)O)[C@H]1O [InsP3, (1,4,5) myo-D-inositol triphosphate]
relative affinity for Arr1 (in words) (Arr1): somewhat lower affinity; also recorded: lower relative affinity | C-tail flexibility by cwEPR (sites T396 and A401) (bovine arrestin-1): slightly more flexibility than InsP6
